Measured values taken from article PMC12670317, “Targeted NAT10 Degradation by PROTAC NP1192 Suppresses Hypoxia-Adaptive Glycolysis and Reinvigorates CD8^+ Effector T‑Cell Function for Synergistic Cancer Immunotherapy” (ACS Central Science, 2025).
pIC50: −log10 of the molar value.

Legend:
[1] = tested on: SiHa cells; assay: Lactic acid, ATP and 2-NBDG uptake assays in SiHa cells; assay type: cell-based, human; settings: 20 μM, 36 h
Procedure: SiHa and U14 cells (2 × 10^5 cells per well) were plated in 6-well plates and cultured in RPMI 1640 medium or DMEM supplemented with 10% FBS and 1% penicillin–streptomycin. After cell adherence, 20 μM NP1192 or DMSO was added and incubated for 36 h, and the assays were performed according to the instruction manuals for the Lactate Assay Kit (Nanjing Jiancheng, China), ATP Assay Kit (Beyotime, China), and 2-NBDG reagent (GlpBio, US). All data analyses were performed via GraphPad Prism 9, and the data are presented as the means ± SEMs.

[2] = tested on: glioblastoma (GBM) patient-derived organoids; assay: ATP-based viability assay in patient-derived organoids, GBM; assay type: cell-based; settings: Homo sapiens, GBM PDOs, read-out: IC50, organoid viability
Procedure: Organoid culture was performed according to previously established protocols. Briefly, we procured patient-derived tissue samples provided and technically manipulated by Accurate International Biotechnology Co., Ltd. Subsequently, these samples were subjected to mechanical and enzymatic dissociation to disaggregate the tissue into single cells or small clusters, while preserving cellular integrity. Following this initial step, the isolated cells or tissue fragments were embedded within a 3D ECM scaffold, such as Matrigel or collagen. The ECM scaffold served as a supportive substrate, promoting cellular self-organization and mimicking native tissue architecture. Additionally, a precisely formulated cocktail of growth factors, cytokines, and signaling molecules tailored to the specific tissue of interest was meticulously formulated and added to the culture medium to facilitate organoid growth and maintenance.

[3] = tested on: RNA ac4C modification; assay: ac4C RNA dot blot in SiHa cells; assay type: cell-based, human; settings: 20 μM, 36 h, vs Remodelin-treated and NAT10-knockdown groups
Procedure: RNA was extracted from cells via an RNA extraction kit (TransGen, China) and denatured by heating to 65 °C for 5 min in the presence of 2× RNA denaturation buffer (Solarbio, China) followed by an equal amount of 20x SSC buffer (Beyotime, China). A nylon membrane (Yeasen, China) was used to immobilize the denatured RNA by dotting RNA samples onto the membrane and cross-linking the RNA to the membrane via UV light. The samples were stained with methylene blue and photographed. Furthermore, the membrane was blocked with 5% milk and incubated with an anti-ac4C primary antibody (1:1000, Abcam, US) for 12 h. After the unbound primary antibody was washed away, the membrane was incubated with a secondary antibody (1:6000, Elabscience, China). The membrane was then washed to remove unbound secondary antibodies, and a detection reagent (Bio-Rad, US) was added to visualize the RNA bands via chemiluminescence with a ChemiDoc MP Imaging System (Bio-Rad, US).

[4] = biological target: T1, NAT10 (Mus musculus, UniProt Q8K224); assay: NAT10 degradation in U14 cells, Western blot; assay type: cell-based; settings: murine U14 cervical cells, same treatment (20 μM), 36 h
T1 construct: nearly 70% reduction in the NAT10 protein content in murine U14 cervical cells after 36 h; endogenous in cells; host or cells: U14 (murine cervical carcinoma cell line, RRID:CVCL_9U56)
T1 sequence (Q8K224 1-1024): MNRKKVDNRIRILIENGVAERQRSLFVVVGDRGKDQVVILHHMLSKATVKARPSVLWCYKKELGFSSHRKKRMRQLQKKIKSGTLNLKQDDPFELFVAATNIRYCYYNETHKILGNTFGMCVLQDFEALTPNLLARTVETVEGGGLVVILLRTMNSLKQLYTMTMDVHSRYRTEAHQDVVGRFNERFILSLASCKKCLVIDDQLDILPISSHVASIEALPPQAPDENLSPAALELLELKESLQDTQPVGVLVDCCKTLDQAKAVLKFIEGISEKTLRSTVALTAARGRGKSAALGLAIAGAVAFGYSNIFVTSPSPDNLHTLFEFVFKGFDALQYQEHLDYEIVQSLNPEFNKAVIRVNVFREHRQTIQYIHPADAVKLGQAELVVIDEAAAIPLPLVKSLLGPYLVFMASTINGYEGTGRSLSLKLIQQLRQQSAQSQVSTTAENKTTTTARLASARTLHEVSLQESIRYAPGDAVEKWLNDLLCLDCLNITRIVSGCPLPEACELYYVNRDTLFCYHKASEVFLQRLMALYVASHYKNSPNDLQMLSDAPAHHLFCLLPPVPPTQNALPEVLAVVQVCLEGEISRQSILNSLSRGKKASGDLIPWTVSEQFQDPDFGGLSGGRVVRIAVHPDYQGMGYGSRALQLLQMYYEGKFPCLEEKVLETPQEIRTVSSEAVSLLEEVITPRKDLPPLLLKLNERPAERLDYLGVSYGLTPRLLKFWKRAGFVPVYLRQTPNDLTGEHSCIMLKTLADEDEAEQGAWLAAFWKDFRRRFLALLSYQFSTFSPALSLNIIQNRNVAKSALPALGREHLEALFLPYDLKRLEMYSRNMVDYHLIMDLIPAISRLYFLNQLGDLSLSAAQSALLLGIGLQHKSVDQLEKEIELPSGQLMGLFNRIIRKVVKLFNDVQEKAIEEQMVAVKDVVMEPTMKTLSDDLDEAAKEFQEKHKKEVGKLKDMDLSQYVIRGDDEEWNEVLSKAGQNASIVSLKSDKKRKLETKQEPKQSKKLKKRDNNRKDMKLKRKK
Procedure: The human CCa cell line SiHa and the normal epithelial foreskin fibroblast line HFF-1 were purchased from the Cell Bank of the Chinese Academy of Sciences. Additionally, murine cervical carcinoma cell line U14 (RRID:CVCL_9U56) was purchased from Boster Company. HFF-1 and U14 cells were cultured in Dulbecco’s modified Eagle’s medium (DMEM) (Gibco, USA) supplemented with 10% heat-inactivated fetal bovine serum (FBS; Gibco, USA), while SiHa cells were incubated in RPMI 1640 medium (Gibco, USA) in a humid atmosphere with 5% CO2 at 37 °C. For hypoxia exposure, the cells were incubated in a sealed culture tank containing 5% CO2 and 0.1% O2 (MGC, Japan) for 36 h.
RIPA lysis buffer (Beyotime, China) mixed with 1% protease inhibitor (Sigma, US) was added to the cells, and a sample of total protein was obtained and then loaded onto an 8% or 12% polyacrylamide gel. The gel was placed in a buffer solution, and an electric current was applied. The separated proteins were subsequently transferred from the gel onto a PVDF membrane. Next, the membrane was blocked with 5% milk for 1 h to prevent nonspecific antibody binding. […] The target proteins were detected via chemiluminescence with a ChemiDoc MP Imaging System (Bio-Rad, US).

[5] = tested on: CD8+ T cells cocultured with U14 cells; settings: Figure 7B, coculture with U14 cells, 36 h
Procedure: Fresh CD8^+ T cells were extracted according to the instructions of the kit. The day before the CD8^+ T cells were extracted, the antimouse CD3 antibody was diluted to 5 μg/mL with sterile PBS, and the diluted antibody was added to a 24-well plate and incubated overnight at 4 °C. (Before the antibody was added to the plate, the plate was rinsed with sterile PBS 2–3 times to avoid dry wells). The plate incubated the previous day was removed from the 4 °C refrigerator on the second day, and the coating solution was discarded, followed by washing with sterile PBS 3 times. Amplification culture medium consisting of DMEM + 10% serum + 5 μg/mL antimouse CD28 + IL-2 was prepared. The cell lines used for culture were maintained in the logarithmic growth phase (70–80% confluence). Cell counting was performed, and CCa cells were seeded in a 12-well plate (10^5 cells/well) and cultured until adherence. T cells were mixed with tumor cells at different effector-to-target ratios (1:10) and then incubated with different drugs for 24 h. Flow cytometry experiments were then performed to detect the CD8^+ T-cell subtypes.

## N#Cc1ccc(-c2csc(N(CCCCCCC(=O)N3CCN(c4cccc5c4C(=O)N(C4CCC(=O)NC4=O)C5=O)CC3)N=C3CCCC3)n2)cc1 (stereo not drawn) [NP1192]
[1]
  lactate levels: significantly decreased lactate levels
[1]; Figure 4K, DMSO 3.21
  absorbtion rate (glucose analog 2-NBDG): 1.94
[2]
  pIC50: 4.86
[3]
  RNA ac4C levels: significant reduction in ac4C levels
[4]
  reduction in NAT10 protein content: ~70%
[5]
  Teff cells, IFN-γ gate (lower row): 7.75%
